# Reference: patent publication US7384961B2, “Saturated and unsaturated heteroarylcycloalkylmethyl amines as anti-depressants” (priority 2002, dated 2008)
# Marks after values point to notes of the source that are not given here.
# What was measured:
# [1] = test system: mice; experiment: Isolation-induced pup vocalization test in mice; format: in vivo; settings: for ED50: sc, read-out: Change in vocalization frequency versus control, ED50 value
# Description: d) Investigation of the Anxiolytic Action in the Isolation-Induced Pup Vocalization Test in Mice
# The isolation-induced pup vocalization test in mice was used to investigate anxiolytic actions (Fish, E. W., Sekinda, M., Ferrari, P. F., Dirks, A., Miczek, K. A., Psychopharmacology, vol. 149, p. 277-285, (2000)). Litters of 7 to 13 mice were used for the testing. At the age of 7 days the animals were separated from the mother and placed in an incubation cage with an internal temperature of approx. 34° C. For determination of the vocalizations in the ultrasonic range, the animals were placed individually on a temperature-controlled platform (23 cm×23 cm, divided by a grid into fields of 2 cm×2 cm, 19±1° C.) of a soundproofed test chamber for a duration of 30 sec. The ultrasonic vocalizations were recorded with a high-frequency capacitor microphone, filtered, amplified, digitalized and plotted and analysed using commercial software. Only animals with pre-values of at least 6 vocalizations within 30 sec and a body weight of 3.5 to 5.5 g were employed for the testing. After subcutaneous (s.c.) injection of substance or vehicle, the animals were returned to the incubation cage for a duration of 10 min and then placed individually again on the temperature-controlled plate of the test chamber for a duration of 4 min. In addition to the number of vocalizations, crossings of the grid of the plate and body turns of the mice were determined to investigate influences of the substance on locomotor activity and coordination. Changes in the vocalization frequencies, crossings of the grid and body turns were stated relative to the vehicle control. A reduction in the vocalization frequency is described for anxiolytics.
# [2] = test system: mice; experiment: Formalin test in mice (analgesic action, chronic pain component); format: in vivo; settings: for ED50: Mus musculus, read-out: Inhibition of the nociceptive behaviour versus control, ED50 value
# Description: b) Investigations of the Analgesic Actions in the Formalin Test in Mice
# The formalin test (Dubuisson, D. and Dennis, S. G., 1977, Pain, 4, 161-174) represents a model of acute and chronic pain. The chronic pain component was evaluated in the investigations described here.
# A biphase nociceptive reaction which is recorded by observing three behaviour patterns which can be clearly differentiated from one another is induced in freely mobile test animals by a single formalin injection into the dorsal side of a hind paw.
# Formalin is administered subcutaneously into the dorsal side of the right hind paw of each animal in a volume of 20 μl and a concentration of 1%.
# The specific changes in behaviour which differ from the normal behaviour (score 0), such as raising (score 1) and shaking the paw (score 2) and biting and licking reactions (score 3), are observed and recorded continuously at component intervals of 3 min for up to 60 min after the administration of formalin. The changes in behaviour are weighted in different ways (score 0-3) and a pain rate (PR) is calculated using the following formula: PR=[(T0×0)+(T1×1)+(T2×2)+(T3×3)]/180.
# The group size is 10 animals (n=10).
# On the basis of the PR calculations, the action of the substance was determined as the change from a control in percent. The ED50 was determined by means of regression analysis.
# [3] = target: T1, 5-HT re-uptake (Rattus norvegicus, UniProt P31652); experiment: Inhibition of 5-HT re-uptake in rat brain synaptosomes (P2 fraction, medulla + pons); format: biochemical; settings: 10 μmol/l
# T1 construct: synaptosomes are freshly isolated from rat brain areas; from tissue; host or cells: rat brain synaptosomes (P2 fraction), medulla + pons region, male rats
# Excerpt: (§1) a) Investigations of the Inhibition of the Re-uptake of 5-HT and NA
# (§2) In order to be able to carry out these in vitro studies, synaptosomes are freshly isolated from rat brain areas. […] These vesicular particles are isolated from the hypothalamus for the NA re-uptake and from the medulla +pons region of male rat brains for the 5-HT re-uptake.
# (§3) The IC50 values were obtained with the aid of the “Figure P” computer program (version 6.0, Biosoft, Cambridge, England). […] The “Ligand” computer program (version 4, Biosoft, England) was used to obtain KD values.
# [4] = target: T2, NA re-uptake (Rattus norvegicus, UniProt Q63380); experiment: Inhibition of NA re-uptake in rat brain synaptosomes (P2 fraction, hypothalamus); format: biochemical; settings: 10 μmol/l
# T2 construct: synaptosomes are freshly isolated from rat brain areas; from tissue; host or cells: rat brain synaptosomes (P2 fraction), hypothalamus
# Excerpt: as §1, §2, §3
# [5] = test system: mice; experiment: Forced swimming test (Porsolt test) in mice; format: in vivo; settings: for Change in immobility phase versus control: 2.15 mg/kg i.p., mice
# Description: c) Investigation of the Antidepressant Action in the Forced Swimming Test (Porsolt Test) in Mice
# The investigations to determine the antidepressant action of the compounds of the formula I according to the invention were carried out in the forced swimming test (Porsolt test) in mice (Porsolt, R. et al., Arch. Int. Pharmacodyn. vol. 229, p. 327-336, (1977)). Male mice (20-25 g body weight) were placed individually for a period of 6 minutes in a shallow bowl of water from which they were unable to escape and were therefore forced to swim. After some time the animals gave up their swimming attempts and passed into an immobility phase. The duration of the immobility phase in the interval of 2-6 minutes after introduction of the animals was determined. The substance and vehicle groups each comprise 10 animals. Changes in the duration of the immobility phase are stated relative to the vehicle control. Differences versus the vehicle control are tested for significance with the aid of the Student's T test. Antidepressants induce a shortening of the immobility phase.
# T2 sequence (Q63380 1-617): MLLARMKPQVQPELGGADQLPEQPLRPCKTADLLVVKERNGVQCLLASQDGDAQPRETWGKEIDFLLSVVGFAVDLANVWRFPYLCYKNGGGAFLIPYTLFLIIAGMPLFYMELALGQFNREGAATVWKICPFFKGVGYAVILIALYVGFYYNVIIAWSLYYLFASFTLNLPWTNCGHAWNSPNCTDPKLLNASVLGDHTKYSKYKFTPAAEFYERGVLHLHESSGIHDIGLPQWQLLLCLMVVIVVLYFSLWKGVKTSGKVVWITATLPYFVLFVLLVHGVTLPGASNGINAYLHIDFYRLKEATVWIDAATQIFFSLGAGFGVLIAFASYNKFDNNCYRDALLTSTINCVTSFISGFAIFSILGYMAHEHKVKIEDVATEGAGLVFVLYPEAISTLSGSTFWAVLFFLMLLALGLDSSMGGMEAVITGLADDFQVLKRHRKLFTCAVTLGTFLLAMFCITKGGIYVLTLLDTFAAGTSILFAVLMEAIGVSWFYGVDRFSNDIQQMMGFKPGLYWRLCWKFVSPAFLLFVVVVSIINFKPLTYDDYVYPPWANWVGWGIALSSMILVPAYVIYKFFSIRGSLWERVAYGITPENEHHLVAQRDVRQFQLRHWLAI
# T1 sequence (P31652 whole entry): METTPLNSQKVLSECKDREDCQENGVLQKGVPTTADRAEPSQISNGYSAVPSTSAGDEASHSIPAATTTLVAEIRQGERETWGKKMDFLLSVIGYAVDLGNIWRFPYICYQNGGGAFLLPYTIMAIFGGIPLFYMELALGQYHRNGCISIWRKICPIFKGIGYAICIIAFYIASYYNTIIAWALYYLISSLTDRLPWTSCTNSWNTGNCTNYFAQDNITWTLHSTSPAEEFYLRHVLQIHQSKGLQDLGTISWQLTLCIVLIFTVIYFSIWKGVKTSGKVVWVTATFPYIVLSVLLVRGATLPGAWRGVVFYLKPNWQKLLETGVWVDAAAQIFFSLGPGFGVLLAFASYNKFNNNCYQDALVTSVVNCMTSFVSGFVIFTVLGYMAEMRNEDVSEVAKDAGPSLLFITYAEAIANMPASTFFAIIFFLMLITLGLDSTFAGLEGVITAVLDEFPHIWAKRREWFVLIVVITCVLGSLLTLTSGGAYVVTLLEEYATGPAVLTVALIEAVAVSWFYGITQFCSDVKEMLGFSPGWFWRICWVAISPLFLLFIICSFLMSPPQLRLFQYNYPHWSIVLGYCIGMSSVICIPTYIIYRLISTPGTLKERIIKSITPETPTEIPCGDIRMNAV
smiles,measurement,setting,value
"CN(C)CCCC1(c2ccc(F)cc2)OCc2cc(C#N)ccc21 (stereo not shown) [Citalopram, citalopram]","Change in body turns, maximum change",[1]; dose range 0.56-10 mg/kg s.c.,+397% (s.)
same,"Change in grid crossings, maximum change",[1]; dose range 0.56-10 mg/kg s.c.,+66% (n.s.)
same,ED50,[1]; mouse pups,1.2 mg/kg
"CN(C)CC1=C(c2cccnc2)CCCC1.Cl.Cl [Example 1, Dimethyl-(2-pyridin-3-yl-cyclohex-1-enylmethyl)amine dihydrochloride]",ED50,[2]; iv,1.66 mg/kg
same,Inhibition of the nociceptive behaviour (in words),[2]; formalin test in mice,dose-dependent inhibition of the nociceptive behaviour
same,inhibition at 10 µM,[3],83%
same,inhibition at 10 µM,[4],35%
same,Change in immobility phase versus control,[5],−54%***
same,Shortening of the immobility phase (in words),[5]; forced swimming test in mice,significant shortening of the immobility phase
same,"Change in body turns, maximum change",[1]; dose range 1.0-17 mg/kg s.c.,+233% (n.s.)
same,"Change in grid crossings, maximum change",[1]; dose range 1.0-17 mg/kg s.c.,+32% (n.s.)
same,Changes in the crossings of the grid and body turns (in words),[1]; locomotion and coordination,no significant changes in the crossings of the grid and body turns
same,Reduction in the vocalization frequency (in words),[1]; pup vocalization test,significant reduction in the vocalization frequency
same,ED50,[1]; mouse pups,1.7 mg/kg
"CNCC[C@H](Oc1cccc2ccccc12)c1cccs1 [duloxetine, reference compound]",ED50,[2]; ip,6.69 mg/kg
same,Change in immobility phase versus control,[5],−41%**
"COc1ccc(C(CN(C)C)C2(O)CCCCC2)cc1 (stereo not shown) [venlafaxine, reference compound]",ED50,[2]; iv,2.6 mg/kg
same,inhibition at 10 µM,[4],92%
same,Change in immobility phase versus control,[5],−66%***
same,ED50,[1]; Mus musculus,8.1 mg/kg
same,"Change in body turns, maximum change",[1]; dose range 0.3-56 mg/kg s.c.,+141% (n.s.)
same,"Change in grid crossings, maximum change",[1]; dose range 0.3-56 mg/kg s.c.,+92% (n.s.)
